In US10064876B2, “Bile acid receptor agonism for treating addiction” (Vanderbilt University, priority 2015, dated 2018):
Entries after “also recorded” stand apart in the source; their conditions may differ.

How the values were obtained:
C57BL/6J mice [1] = assay: cocaine conditioned place preference (CPP) in mice under chronic OCA; type: in vivo, mouse; conditions: OCA 10 mg/kg orally six days a week for four weeks vs vehicle, CPP started after 2 weeks, cocaine 20 mg/kg i.p.
Protocol: CPP was performed as previously described, with modifications (Graham D L, et al. (2013). Mol Psychiatry. 18(9):961-962). Briefly, mice were weighed and then acclimated to the testing room for at least 20 minutes prior to testing each day. During the first phase (pre-conditioning, day 1), mice were placed on the grid floor side of a two chamber apparatus. For 30 min, the mice had free access to both sides of the apparatus, which each contained their own distinct visual and tactile cues. During the second phase (conditioning, days 2-9), on alternate days mice were restricted to one side or the other of the apparatus for 30 min by use of a dividing door. […] During this time, the mouse's locomotor activity was measured by infrared sensors and used to determine cocaine-induced locomotor sensitization. […] Thus mice were given full access to both compartments and their time spent on each side was measured. % CPP was calculated as the time spent on the cocaine-paired side between post-conditioning minus the time spent on the cocaine-paired side during pre-conditioning divided by the time spent on the saline-paired side during pre-conditioning. […] Locomotor sensitization to cocaine was determined by the ambulatory distance on days when mice received cocaine during the conditioning phase of CPP. […]

[2] = body weight during chronic OCA treatment; type: in vivo, mouse; conditions: OCA 10 mg/kg orally vs vehicle, throughout the 4-week study
Source text: Jellies were composed of gelatin (10% w/v), sucralose (18.5% w/v), artificial strawberry flavoring (8% v/v); beta cyclodextrin (2% w/v) in water. […] Jellies containing vehicle contained the same amount of beta cyclodextrin. Mice were given jellies by voluntary oral administration six days per week for four weeks. They were given the jellies between 3 pm and 6 pm by placing each mouse into an open field chamber containing the jelly. To ensure that mice consumed the jellies consistently, all mice were initially trained to eat jellies without drug for 5 days prior to drug/vehicle jelly administration. Mice in this group underwent behavioral testing for cocaine conditioned place preference after 2 weeks of chronic drug administration. During this time, drug administrations were continued until sacrifice.

[3] = phase III clinical trial, hepatic steatosis; cited from earlier work
[4] = tested on: AMPA receptor-mediated excitatory post-synaptic currents (EPSCs) in NAc medium spiny neurons; assay: whole-cell electrophysiology, EPSC amplitude in ex vivo brain slices; type: cell-based, mouse; conditions: 10 μM OCA (FIG. 29B legend), perfused 10 min, holding at −70 mV, 50 μM picrotoxin
Protocol: Ex vivo mouse sagittal brain slices were prepared as previously described (Grueter, B. A., et al. Nat Neurosci 13:1519-1525 (2010)). Briefly, mice were acutely anesthetized using isoflurane and sacrificed by rapid decapitation. Brains were submerged in ice-cold sucrose dissecting solution (80 mM NaCl, 2.5 mM KCl, 7 mM MgCl2, 0.5 mM CaCl2, 1.25 mM NaH2PO4, 25 mM NaHCO3, 75 mM sucrose, and 25 mM glucose) and 250 μm thick slices were cut using the Leica 200VT Vibratome. Slices were allowed to recover for 10-15 min at 35° C. in an N-methyl D-glucamine (NMDG) based recovery solution (2.5 mM KCl, 20 mM HEPES, 1.2 mM NaH2PO4, 25 mM glucose, 93 mM NMDG, 30 mM NaHCO3, 5 mM sodium ascorbate, 3 mM sodium pyruvate, 10 mM MgSO4, and 0.5 mM CaCl2) before being transferred to a room temperature ACSF holding chamber for one hour prior to use. ASCF used for holding chamber and recordings contained 120 mM NaCl, 2.5 mM KCL, 1.5 mM MgCl2, 2.5 mM CaCl2, 1 mM NaH2PO4, 25 mM NaHCO3, and 10 mM glucose. […] Evoked responses were elicited by electrical stimulation via the Iso-flex stimulation isolator and recorded using the Axopatch Multiclamp 700B amplifier and Axon Digidata 1550 low-noise data acquisition digitizer. […] Peak EPSC amplitude was measured for the duration of the experiment and normalized to the first 10 min. […]

C57BL/6J mice [5] = assay: cocaine-induced locomotion in OCA-treated mice; type: in vivo, mouse; conditions: OCA 10 mg/kg orally, chronic, vs vehicle
Protocol: CPP was performed as previously described, with modifications (Graham D L, et al. (2013). Mol Psychiatry. 18(9):961-962). Briefly, mice were weighed and then acclimated to the testing room for at least 20 minutes prior to testing each day. During the first phase (pre-conditioning, day 1), mice were placed on the grid floor side of a two chamber apparatus. For 30 min, the mice had free access to both sides of the apparatus, which each contained their own distinct visual and tactile cues. During the second phase (conditioning, days 2-9), on alternate days mice were restricted to one side or the other of the apparatus for 30 min by use of a dividing door. Just prior to being placed in the chamber, each mouse was given an injection of either cocaine (20 mg/kg, i.p.) or saline (i.p.). […] Only the first 20 minutes of pre-conditioning and post-conditioning was used in the calculation of % CPP. […] Following 20 minutes of acclimation to the testing room, mice were initially placed in open field chambers for 60 min and ambulatory distance was recorded. […] Finally, mice were removed again and injected with cocaine (20 mg/kg, i.p.) before being placed back in the chamber for an additional 120 minutes. […] Jellies were composed of gelatin (10% w/v), sucralose (18.5% w/v), artificial strawberry flavoring (8% v/v); beta cyclodextrin (2% w/v) in water. […]

FXR = conditions: Sayin 2013; Li 2013; cited from earlier work
Lipoprotein lipase (Lpl) = assay: hepatic gene expression by RNA-seq; type: in vivo, mouse; conditions: liver
Protocol: The transcriptional sequencing was implemented with modifications of the standard Illumina methods (Bentley, D. R. et al. Nature 456, 53-59 (2008)). Sequencing reactions were performed using the Illumina HiSeq (v3 chemistry). Initial QC quantification of the extracted total RNA was done by using Qubit Fluorometer (Invitrogen). Agilent 2100 Bioanalyzer was used to check the quality of the extracted RNA from both the samples. About 30 ng of total RNA was amplified using the NuGEN Technologies Ovation RNA amplification kit optimized for RNA sequencing. The output is double-stranded complementary DNA (cDNA) that was sheared using the Covaris instrument to an average insert size of 300 bp. The sheared DNA entered the standard Illumina TruSeq library preparation protocol at the standard end-repair step. […] Following LM-PCR, the samples were purified and assessed for quality using the Agilent Bioanalyzer. Final quantitation was performed using the KAPA Biosystems Kapa Library Quant kit. […]
Multiple stages of quality control (QC) on sequencing data was carried out. […] Raw data were aligned with TopHat 2 against mouse MM10 genome, and read count data were obtained using HTSeq, DESeq (Anders, S. & Huber, W. Genome Biol. 11, R106 (2010)), edgeR (Robinson, M. D., et al. Bioinformatics 26, 139-140 (2010)) and baySeq (Hardcastle, T. J. & Kelly, K. A. BMC Bioinformatics 11, 422 (2010)). […]

## CC[C@H]1[C@@H](O)[C@@H]2[C@H](CC[C@]3(C)[C@@H]([C@H](C)CCC(=O)O)CC[C@@H]23)[C@@]2(C)CC[C@@H](O)C[C@@H]12 [OCA, (4R)-4-[(3R,5S,6R,7R,8S,9S,10S,13R,14S,17R)-6-Ethyl-3,7-dihydroxy-10,13-dimethyl-2,3,4,5,6,7,8,9,11,12,14,15,16,17-tetradecahydro-1H-cyclopenta[a]phenanthren-17-yl]pentanoic acid]
C57BL/6J mice [1]
  cocaine CPP (preference for the cocaine-paired chamber, % CPP): decreased; also recorded: reduced preference
C57BL/6J mice [1]; listed as 6-ECDCA
  cocaine CPP (preference for the cocaine-paired chamber, % CPP): significantly reduced
[2]
  body weight: No differences
[3]
  clinical efficacy: clinical efficacy
  safety profile: excellent safety profile
[4]
  EPSC amplitude in NAc medium spiny neurons: robust depression; also recorded: reduced
C57BL/6J mice [5]
  cocaine-induced locomotion: impaired

## C[C@H](CCC(=O)NCCS(=O)(=O)O)[C@H]1CC[C@H]2[C@@H]3[C@@H](O)[C@@H](O)[C@@H]4C[C@H](O)CC[C@]4(C)[C@H]3CC[C@]12C [TβMCA, 5β-cholanic acid-3α,6β,7β-triol-N-[2-sulphoethyl]-amide]
FXR
  FXR antagonist activity: potent FXR antagonist

## COC(=O)/C=C/c1cccc(N(Cc2ccc(-c3ccc(N(C)C)cc3)cc2)C(=O)C2CCCCC2)c1 [fexaramine]
Lipoprotein lipase (Lpl)
  Lpl hepatic expression, increase relative to DIO controls: 2.4 fold
